Experimental data taken from ChEMBL document CHEMBL3046138, “5-Aryl-1,3,4-oxadiazole-2-thiols as a New Series of trans-Cinnamate 4-Hydroxylase Inhibitors” (J Pestic Sci, 2004).

Molecular target: T1, Trans-cinnamate 4-monooxygenase (Populus kitakamiensis) (UniProt Q43054)
T1 sequence (whole entry): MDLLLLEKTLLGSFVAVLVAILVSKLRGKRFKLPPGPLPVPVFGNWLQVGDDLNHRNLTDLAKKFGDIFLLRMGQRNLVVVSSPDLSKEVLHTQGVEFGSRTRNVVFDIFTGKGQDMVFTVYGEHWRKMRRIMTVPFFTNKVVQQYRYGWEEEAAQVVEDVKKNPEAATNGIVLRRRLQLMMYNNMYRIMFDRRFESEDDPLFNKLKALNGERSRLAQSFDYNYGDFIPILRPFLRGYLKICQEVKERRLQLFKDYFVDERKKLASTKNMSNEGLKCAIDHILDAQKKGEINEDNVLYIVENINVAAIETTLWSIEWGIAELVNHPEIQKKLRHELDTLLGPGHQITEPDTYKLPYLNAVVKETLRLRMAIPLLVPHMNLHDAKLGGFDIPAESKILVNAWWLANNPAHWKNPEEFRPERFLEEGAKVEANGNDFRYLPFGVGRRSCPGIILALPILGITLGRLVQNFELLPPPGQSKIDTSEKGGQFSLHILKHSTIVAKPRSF
Test: Inhibition of Populus sieboldii x Populus grandidentata CYP73A1 at 100 uM

SMILES	inhibition
O=C(O)c1ccc2c(c1)OCO2 [PIPERONYLIC ACID]	58%

Molecular target: T2, Trans-cinnamate 4-monooxygenase (Helianthus tuberosus, UniProt Q04468)
T2 sequence (Q04468 whole entry): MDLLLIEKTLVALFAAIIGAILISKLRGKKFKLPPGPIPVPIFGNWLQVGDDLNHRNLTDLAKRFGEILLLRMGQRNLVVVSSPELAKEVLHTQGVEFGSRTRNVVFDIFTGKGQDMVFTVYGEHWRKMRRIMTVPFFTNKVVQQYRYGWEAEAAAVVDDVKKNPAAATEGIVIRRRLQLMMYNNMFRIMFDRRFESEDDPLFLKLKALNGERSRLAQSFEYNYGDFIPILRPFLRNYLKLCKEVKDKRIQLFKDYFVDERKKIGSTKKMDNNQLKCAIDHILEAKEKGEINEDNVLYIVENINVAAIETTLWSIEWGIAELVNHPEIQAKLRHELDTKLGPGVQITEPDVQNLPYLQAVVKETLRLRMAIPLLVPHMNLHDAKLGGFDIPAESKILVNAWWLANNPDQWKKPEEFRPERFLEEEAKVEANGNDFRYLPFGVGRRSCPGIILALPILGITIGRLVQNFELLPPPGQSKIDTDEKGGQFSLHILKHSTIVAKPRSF
Test: Inhibition of Helianthus tuberosus CYP73A1

SMILES	IC50
O=C(O)c1c(O)ccc2ccccc12	890 nM

Molecular target: T3, Trans-cinnamate 4-monooxygenase (Populus kitakamiensis, UniProt Q43054)
T3 sequence (Q43054 whole entry): T1 sequence (whole entry)
Test: Inhibition of Populus sieboldii x Populus grandidentata trans-cinnamate 4-hydroxylase expressed in Saccharomyces cerevisiae BJ2168 assessed as inhibition of hydroxylation of cinnamic acid after 60 min

SMILES	IC50
c1ccc(-c2nnco2)cc1	> 100000 nM
S=c1[nH]nc(-c2ccc(Cl)cc2)o1	23000 nM
Sc1nnc(-c2cccc(Br)c2)o1	420 nM
Sc1nnc(-c2ccncc2)o1	15000 nM
Sc1nnc(-c2cccnc2)o1	650 nM
Sc1nnc(-c2ccco2)o1	5900 nM
Sc1nnc(-c2cc(Cl)cc(Cl)c2)o1	> 100000 nM
Fc1ccc(-c2nnc(S)o2)cc1	3300 nM
Cc1ccc(-c2nnc(S)o2)cc1	50000 nM
Sc1nnc(-c2cccc(Cl)c2)o1	210 nM
Cc1ccccc1-c1nnc(S)o1	500 nM
O=C(O)c1c(O)ccc2ccccc12	880 nM
O=C(O)c1ccc2c(c1)OCO2 [PIPERONYLIC ACID]	> 100000 nM
Fc1ccccc1-c1nnc(S)o1	190 nM
S=c1[nH]nc(C2CCCCC2)o1	> 100000 nM
Sc1nnc(-c2ccccn2)o1	580 nM
S=c1[nH]nc(-c2cccc3ccccc23)o1	> 100000 nM
COc1cccc(-c2nnc(S)o2)c1	6100 nM
FC(F)(F)c1cccc(-c2nnc(S)o2)c1	> 100000 nM
Sc1nnc(-c2ccccc2Cl)o1	680 nM
Sc1nnc(-c2cccs2)o1	6200 nM
Cc1cccc(-c2nnc(S)o2)c1	1100 nM
CSc1nnc(-c2ccccc2)o1	> 100000 nM
Sc1nnc(-c2ccc3ccccc3c2)o1	> 100000 nM
Fc1cccc(-c2nnc(S)o2)c1	130 nM
S=c1[nH]nc(-c2ccccc2)o1	800 nM
Sc1nnc(-c2ccccc2Br)o1	980 nM
Sc1nnc(-c2cc(Cl)ccc2Cl)o1	2000 nM
O=c1[nH]nc(-c2ccccc2)o1	6700 nM
Sc1nnc(/C=C/c2ccccc2)o1	> 100000 nM
